How the values were obtained:
rice seeds [1] = conditions: in vivo
Protocol: Seed was tested for germination in an incubator and also flown onto a flooded field under standard agricultural practices.

rice seeds [2] = experiment: Stand establishment of pregerminated rice seed treated with mancozeb slurry, flown onto flooded fields; type: in vivo; conditions: slurry at 19-22 fluid ounces per hundred pounds of seed
rice seeds [3] = experiment: Seedling growth of pregerminated rice seed coated with gibberellic acid, sown by plane in flooded field

N#Cc1nn(-c2c(Cl)cc(C(F)(F)F)cc2Cl)c(N)c1[S+]([O-])C(F)(F)F (stereo not drawn) [fipronil, 5-amino-1-(2,6-dichloro-4-trifluoromethylphenyl)-4-trifluoromethylsulfinyl-3-cyanopyrazole]
appearance of pregerminated seeds after machine mixing (rice seeds [1]): appeared undamaged
stand establishment (rice seeds [1]): the same as untreated seed

[[1,2-ethanediylbis[carbamodithioato]](2-)]manganese mixture with [[1,2-ethanediylbis [carbamodithioato]](2—)]zinc [mancozeb]
stand of rice plants established (rice seeds [2]): acceptable stand

C=C1C[C@]23C[C@@]1(O)CC[C@H]2[C@@]12C=C[C@H](O)[C@@](C)(C(=O)O1)[C@H]2[C@@H]3C(=O)O [gibberellic acid]
size of root relative to shoot (rice seeds [3]; 3 to 10 days after sowing): approximately the same size
resistance of seedlings to wind (rice seeds [3]; 3 to 10 days after sowing, located in the soil at a depth of 0 to 2 mm): highly resistant to wind
appearance of germinated seeds after machine mixing (rice seeds [3]; […], radicles 1 to 8 mm): appeared undamaged

Reference: patent publication US20010004460A1, “PROCESS FOR THE PREPARATION OF RICE SEED FOR SOWING” (priority 1995, published 2001)
